Data published in the supplement of paper PMC10307832.

Legend:
Test in all cases: relative viability (nuclei count vs DMSO), 5 days (fraction); higher = more cells survive
Bosutinib + Luminespib = compound: COc1cc(Nc2c(C#N)cnc3cc(OCCCN4CCN(C)CC4)c(OC)cc23)c(Cl)cc1Cl [Bosutinib] + CCNC(=O)c1noc(-c2cc(C(C)C)c(O)cc2O)c1-c1ccc(CN2CCOCC2)cc1 [Luminespib] (partner 0.01 µM)
Procedure, shortened: (§1)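 A single step with final 0.05% Triton X-100, 1% formaldehyde and 1 ug/ml Hoechst fixed the cells and stained nuclei 5 days after treatment. Lung cancer cell lines in 1536-well plates had been treated by pin tool the day after seeding with one drug alone or a fixed anchor-drug dose plus five library-drug doses (not always all listed) in √10 steps, and nuclei were counted on 4× images. Relative viability is the ratio of nuclei in treated wells to nuclei in vehicle wells, taken as the median of duplicate plates.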

Bosutinib + Trametinib = compound: COc1cc(Nc2c(C#N)cnc3cc(OCCCN4CCN(C)CC4)c(OC)cc23)c(Cl)cc1Cl [Bosutinib] + CC(=O)Nc1cccc(-n2c(=O)n(C3CC3)c(=O)c3c(Nc4ccc(I)cc4F)n(C)c(=O)c(C)c32)c1 [Trametinib] (partner 0.02 µM)
Procedure, shortened: as §1

Bosutinib + Pictilisib = compound: COc1cc(Nc2c(C#N)cnc3cc(OCCCN4CCN(C)CC4)c(OC)cc23)c(Cl)cc1Cl [Bosutinib] + CS(=O)(=O)N1CCN(Cc2cc3nc(-c4cccc5[nH]ncc45)nc(N4CCOCC4)c3s2)CC1 [Pictilisib] (partner 1 µM)
Procedure, shortened: as §1

Bosutinib + Palbociclib = compound: COc1cc(Nc2c(C#N)cnc3cc(OCCCN4CCN(C)CC4)c(OC)cc23)c(Cl)cc1Cl [Bosutinib] + CC(=O)c1c(C)c2cnc(Nc3ccc(N4CCNCC4)cn3)nc2n(C2CCCC2)c1=O [Palbociclib] (partner 0.5 µM)
Procedure, shortened: as §1

Bosutinib + Lapatinib = compound: COc1cc(Nc2c(C#N)cnc3cc(OCCCN4CCN(C)CC4)c(OC)cc23)c(Cl)cc1Cl [Bosutinib] + CS(=O)(=O)CCNCc1ccc(-c2ccc3ncnc(Nc4ccc(OCc5cccc(F)c5)c(Cl)c4)c3c2)o1 [Lapatinib] (partner 2 µM)
Procedure, shortened: as §1

LOU-NH91
relative viability (Bosutinib + Luminespib; first compound 0.01 µM): 0.315 | relative viability (Bosutinib + Luminespib; first compound 0.03162 µM): 0.36 | relative viability (Bosutinib + Luminespib; first compound 0.1 µM): 0.38 | relative viability (Bosutinib + Luminespib; first compound 1 µM): 0.178 | relative viability (Bosutinib + Trametinib; first compound 0.01 µM): 0.816 | relative viability (Bosutinib + Trametinib; first compound 0.03162 µM): 0.805 | relative viability (Bosutinib + Trametinib; first compound 0.1 µM): 0.771 | relative viability (Bosutinib + Trametinib; first compound 1 µM): 0.672 | relative viability (Bosutinib + Pictilisib; first compound 0.01 µM): 0.492 | relative viability (Bosutinib + Pictilisib; first compound 0.03162 µM): 0.524 | relative viability (Bosutinib + Pictilisib; first compound 0.1 µM): 0.504 | relative viability (Bosutinib + Pictilisib; first compound 1 µM): 0.468 | relative viability (Bosutinib + Palbociclib; first compound 0.01 µM): 0.529 | relative viability (Bosutinib + Palbociclib; first compound 0.03162 µM): 0.541 | relative viability (Bosutinib + Palbociclib; first compound 0.1 µM): 0.541 | relative viability (Bosutinib + Palbociclib; first compound 1 µM): 0.563 | relative viability (Bosutinib + Lapatinib; first compound 0.01 µM): 0.759 | relative viability (Bosutinib + Lapatinib; first compound 0.03162 µM): 0.824 | relative viability (Bosutinib + Lapatinib; first compound 0.1 µM): 0.791 | relative viability (Bosutinib + Lapatinib; first compound 1 µM): 0.723

LU99A
relative viability (Bosutinib + Luminespib; first compound 0.01 µM): 0.231 | relative viability (Bosutinib + Luminespib; first compound 0.03162 µM): 0.258 | relative viability (Bosutinib + Luminespib; first compound 0.1 µM): 0.242 | relative viability (Bosutinib + Luminespib; first compound 1 µM): 0.242 | relative viability (Bosutinib + Trametinib; first compound 0.01 µM): 0.53 | relative viability (Bosutinib + Trametinib; first compound 0.03162 µM): 0.623 | relative viability (Bosutinib + Trametinib; first compound 0.1 µM): 0.645 | relative viability (Bosutinib + Trametinib; first compound 1 µM): 0.517 | relative viability (Bosutinib + Pictilisib; first compound 0.01 µM): 0.324 | relative viability (Bosutinib + Pictilisib; first compound 0.03162 µM): 0.321 | relative viability (Bosutinib + Pictilisib; first compound 0.1 µM): 0.375 | relative viability (Bosutinib + Pictilisib; first compound 1 µM): 0.345 | relative viability (Bosutinib + Palbociclib; first compound 0.01 µM): 0.45 | relative viability (Bosutinib + Palbociclib; first compound 0.03162 µM): 0.409 | relative viability (Bosutinib + Palbociclib; first compound 0.1 µM): 0.44 | relative viability (Bosutinib + Palbociclib; first compound 1 µM): 0.421 | relative viability (Bosutinib + Lapatinib; first compound 0.01 µM): 1.05 | relative viability (Bosutinib + Lapatinib; first compound 0.03162 µM): 1.01 | relative viability (Bosutinib + Lapatinib; first compound 0.1 µM): 0.976 | relative viability (Bosutinib + Lapatinib; first compound 1 µM): 0.876

LXF-289
relative viability (Bosutinib + Luminespib; first compound 0.01 µM): 0.718 | relative viability (Bosutinib + Luminespib; first compound 0.03162 µM): 0.674 | relative viability (Bosutinib + Luminespib; first compound 0.1 µM): 0.702 | relative viability (Bosutinib + Luminespib; first compound 1 µM): 0.689 | relative viability (Bosutinib + Trametinib; first compound 0.01 µM): 0.654 | relative viability (Bosutinib + Trametinib; first compound 0.03162 µM): 0.721 | relative viability (Bosutinib + Trametinib; first compound 0.1 µM): 0.679 | relative viability (Bosutinib + Trametinib; first compound 1 µM): 0.751 | relative viability (Bosutinib + Pictilisib; first compound 0.01 µM): 0.815 | relative viability (Bosutinib + Pictilisib; first compound 0.03162 µM): 0.865 | relative viability (Bosutinib + Pictilisib; first compound 0.1 µM): 0.818 | relative viability (Bosutinib + Pictilisib; first compound 1 µM): 0.778 | relative viability (Bosutinib + Palbociclib; first compound 0.01 µM): 0.634 | relative viability (Bosutinib + Palbociclib; first compound 0.03162 µM): 0.614 | relative viability (Bosutinib + Palbociclib; first compound 0.1 µM): 0.607 | relative viability (Bosutinib + Palbociclib; first compound 1 µM): 0.669 | relative viability (Bosutinib + Lapatinib; first compound 0.01 µM): 0.881 | relative viability (Bosutinib + Lapatinib; first compound 0.03162 µM): 0.912 | relative viability (Bosutinib + Lapatinib; first compound 0.1 µM): 0.913 | relative viability (Bosutinib + Lapatinib; first compound 1 µM): 0.929

NCI-H23
relative viability (Bosutinib + Luminespib; first compound 0.01 µM): 0.197 | relative viability (Bosutinib + Luminespib; first compound 0.03162 µM): 0.205 | relative viability (Bosutinib + Luminespib; first compound 0.1 µM): 0.204 | relative viability (Bosutinib + Luminespib; first compound 1 µM): 0.195 | relative viability (Bosutinib + Trametinib; first compound 0.01 µM): 0.343 | relative viability (Bosutinib + Trametinib; first compound 0.03162 µM): 0.344 | relative viability (Bosutinib + Trametinib; first compound 0.1 µM): 0.36 | relative viability (Bosutinib + Trametinib; first compound 1 µM): 0.277 | relative viability (Bosutinib + Pictilisib; first compound 0.01 µM): 0.523 | relative viability (Bosutinib + Pictilisib; first compound 0.03162 µM): 0.503 | relative viability (Bosutinib + Pictilisib; first compound 0.1 µM): 0.531 | relative viability (Bosutinib + Pictilisib; first compound 1 µM): 0.481 | relative viability (Bosutinib + Palbociclib; first compound 0.01 µM): 0.515 | relative viability (Bosutinib + Palbociclib; first compound 0.03162 µM): 0.476 | relative viability (Bosutinib + Palbociclib; first compound 0.1 µM): 0.464 | relative viability (Bosutinib + Palbociclib; first compound 1 µM): 0.591 | relative viability (Bosutinib + Lapatinib; first compound 0.01 µM): 1.09 | relative viability (Bosutinib + Lapatinib; first compound 0.03162 µM): 1.06 | relative viability (Bosutinib + Lapatinib; first compound 0.1 µM): 1.2 | relative viability (Bosutinib + Lapatinib; first compound 1 µM): 1.11

NCI-H322M
relative viability (Bosutinib + Luminespib; first compound 0.01 µM): 0.771 | relative viability (Bosutinib + Luminespib; first compound 0.03162 µM): 0.754 | relative viability (Bosutinib + Luminespib; first compound 0.1 µM): 0.793 | relative viability (Bosutinib + Luminespib; first compound 1 µM): 0.333 | relative viability (Bosutinib + Trametinib; first compound 0.01 µM): 0.486 | relative viability (Bosutinib + Trametinib; first compound 0.03162 µM): 0.481 | relative viability (Bosutinib + Trametinib; first compound 0.1 µM): 0.492 | relative viability (Bosutinib + Trametinib; first compound 1 µM): 0.361 | relative viability (Bosutinib + Pictilisib; first compound 0.01 µM): 0.469 | relative viability (Bosutinib + Pictilisib; first compound 0.03162 µM): 0.495 | relative viability (Bosutinib + Pictilisib; first compound 0.1 µM): 0.525 | relative viability (Bosutinib + Pictilisib; first compound 1 µM): 0.485 | relative viability (Bosutinib + Palbociclib; first compound 0.01 µM): 0.523 | relative viability (Bosutinib + Palbociclib; first compound 0.03162 µM): 0.452 | relative viability (Bosutinib + Palbociclib; first compound 0.1 µM): 0.492 | relative viability (Bosutinib + Palbociclib; first compound 1 µM): 0.414 | relative viability (Bosutinib + Lapatinib; first compound 0.01 µM): 0.51 | relative viability (Bosutinib + Lapatinib; first compound 0.03162 µM): 0.589 | relative viability (Bosutinib + Lapatinib; first compound 0.1 µM): 0.623 | relative viability (Bosutinib + Lapatinib; first compound 1 µM): 0.573

NCI-H441
relative viability (Bosutinib + Luminespib; first compound 0.01 µM): 0.362 | relative viability (Bosutinib + Luminespib; first compound 0.03162 µM): 0.425 | relative viability (Bosutinib + Luminespib; first compound 0.1 µM): 0.448 | relative viability (Bosutinib + Luminespib; first compound 1 µM): 0.412 | relative viability (Bosutinib + Trametinib; first compound 0.01 µM): 0.509 | relative viability (Bosutinib + Trametinib; first compound 0.03162 µM): 0.476 | relative viability (Bosutinib + Trametinib; first compound 0.1 µM): 0.436 | relative viability (Bosutinib + Trametinib; first compound 1 µM): 0.379 | relative viability (Bosutinib + Pictilisib; first compound 0.01 µM): 0.669 | relative viability (Bosutinib + Pictilisib; first compound 0.03162 µM): 0.483 | relative viability (Bosutinib + Pictilisib; first compound 0.1 µM): 0.634 | relative viability (Bosutinib + Pictilisib; first compound 1 µM): 0.459 | relative viability (Bosutinib + Palbociclib; first compound 0.01 µM): 0.193 | relative viability (Bosutinib + Palbociclib; first compound 0.03162 µM): 0.217 | relative viability (Bosutinib + Palbociclib; first compound 0.1 µM): 0.262 | relative viability (Bosutinib + Palbociclib; first compound 1 µM): 0.22

NCI-H522
relative viability (Bosutinib + Luminespib; first compound 0.01 µM): 1.15 | relative viability (Bosutinib + Luminespib; first compound 0.03162 µM): 1.16 | relative viability (Bosutinib + Luminespib; first compound 0.1 µM): 1.26 | relative viability (Bosutinib + Luminespib; first compound 1 µM): 1.01 | relative viability (Bosutinib + Trametinib; first compound 0.01 µM): 0.723 | relative viability (Bosutinib + Trametinib; first compound 0.03162 µM): 0.711 | relative viability (Bosutinib + Trametinib; first compound 0.1 µM): 0.689 | relative viability (Bosutinib + Trametinib; first compound 1 µM): 0.723 | relative viability (Bosutinib + Palbociclib; first compound 0.01 µM): 1.07 | relative viability (Bosutinib + Palbociclib; first compound 0.03162 µM): 0.93 | relative viability (Bosutinib + Palbociclib; first compound 0.1 µM): 0.996 | relative viability (Bosutinib + Palbociclib; first compound 1 µM): 0.8

NCI-H596
relative viability (Bosutinib + Luminespib; first compound 0.01 µM): 0.935 | relative viability (Bosutinib + Luminespib; first compound 0.03162 µM): 0.938 | relative viability (Bosutinib + Luminespib; first compound 0.1 µM): 0.959 | relative viability (Bosutinib + Luminespib; first compound 1 µM): 1.1 | relative viability (Bosutinib + Trametinib; first compound 0.01 µM): 0.842 | relative viability (Bosutinib + Trametinib; first compound 0.03162 µM): 0.765 | relative viability (Bosutinib + Trametinib; first compound 0.1 µM): 0.825 | relative viability (Bosutinib + Trametinib; first compound 1 µM): 0.663 | relative viability (Bosutinib + Pictilisib; first compound 0.01 µM): 0.398 | relative viability (Bosutinib + Pictilisib; first compound 0.03162 µM): 0.369 | relative viability (Bosutinib + Pictilisib; first compound 0.1 µM): 0.405 | relative viability (Bosutinib + Pictilisib; first compound 1 µM): 0.392 | relative viability (Bosutinib + Lapatinib; first compound 0.01 µM): 1.07 | relative viability (Bosutinib + Lapatinib; first compound 0.03162 µM): 0.991 | relative viability (Bosutinib + Lapatinib; first compound 0.1 µM): 1.07 | relative viability (Bosutinib + Lapatinib; first compound 1 µM): 1.1

SW 900
relative viability (Bosutinib + Luminespib; first compound 0.01 µM): 0.154 | relative viability (Bosutinib + Luminespib; first compound 0.1 µM): 0.183 | relative viability (Bosutinib + Luminespib; first compound 1 µM): 0.15 | relative viability (Bosutinib + Trametinib; first compound 0.01 µM): 0.809 | relative viability (Bosutinib + Trametinib; first compound 0.03162 µM): 0.674 | relative viability (Bosutinib + Trametinib; first compound 0.1 µM): 0.784 | relative viability (Bosutinib + Trametinib; first compound 1 µM): 0.61 | relative viability (Bosutinib + Palbociclib; first compound 0.01 µM): 0.524 | relative viability (Bosutinib + Palbociclib; first compound 0.03162 µM): 0.525 | relative viability (Bosutinib + Palbociclib; first compound 0.1 µM): 0.5 | relative viability (Bosutinib + Palbociclib; first compound 1 µM): 0.352
